According to patent US20110098296A1, “Thiazole And Oxazole Kinase Inhibitors” (priority 2007, published 2011):
pIC50: −log10 of the molar value.

Assays:
Colo205 tumor cells = test: Method C: Cell Growth Inhibition Assay (CellTiter-Glo), Colo205; format: cell-based; conditions: Homo sapiens, COLO 205, 72 h, 3 days, 4-parameter fit
Method: (§1) Human breast tumor cells (BT474) were cultured in RPMI (Mediatech 50-011-PB), containing 10% FBS (JRH Biosciences 12176) and 1% penicillin-streptomycin (Invitrogen 15140). Human head and neck tumor cells (HN5) were cultured in high glucose DMEM (Mediatech 50-013-PB) containing 10% FBS and 1% penicillin-streptomycin. Human colon tumor cells (Colo205) were cultured in RPMI (Mediatech 50-020-PB) containing 10% FBS and 1% penicillin-streptomycin. Human melanoma cancer cells (SK-MEL-28) were cultured in EMEM with nonessential amino acids (Mediatech 50-011-PB) containing 10% FBS, 1% sodium pyruvate (JT Baker 3354-04), and 1% penicillin-streptomycin. Human melanoma cancer cells (A375P F11s) were cultured in RPMI (Mediatech 50-020-PB) containing 10% FBS, 1% sodium pyruvate, and 1% penicillin-streptomycin. Human colon cancer cells (HT-29) were cultured in high glucose DMEM (Mediatech 50-013-PB) containing 10% FBS and 1% penicillin-streptomycin. Human melanoma cancer cells (SK-MEL-3) were cultured in McCoy's 5A (50-025-PB) containing 15% FBS, and 1% penicillin-streptomycin. All cell lines were maintained at 37° C. in a humidified 5% CO2, 95% air incubator. Cells were harvested using trypsin/EDTA (Invitrogen 25200), counted using an haemocytometer, and plated. For 96-well assays (using white full-area NUNC plates cat. #136102), cells were plated in 105 μL at the following densities (cells/well): HN5, 500; Colo205, 500; SK-MEL-28, 500; A375P-F11s, 500; HT-29, 500; SK-MEL-3, 500; and BT474, 3000. For 384-well assays (white full-area NUNC plates, cat. #781080), cells were plated in 48 μL at the following densities (cells/well): HN5, 500; Colo205, 500; SK-MEL-28, 500; A375P-F11s, 500; HT29, 500; SK-MEL-3, 500; and BT474, 2000.
(§2) The next day, compounds were diluted as follow: For 96-well assays, 13.5 μL of compound in DMSO were diluted using nine (9) serial 1:3 dilutions of 4.5 μL in 9 μL of DMSO. Medium (270 μl/well of RPMI with 10% FBS and 1% penicillin-streptomycin) was added to the plates. Aliquots (7 μl) were added to cells in the final assay giving a final DMSO concentration of 0.2%. For 384-well assays, 15 μL of compound in DMSO were diluted using nine (9) serial 1:3 dilutions of 5 μL in 10 μL of DMSO, followed by a further dilution of 5 μL of compound with 95 μL of medium, of which 2 μL were added to cells in the final assay giving a final DMSO concentration of 0.2%. Cells were incubated at 37° C., 5% CO2 for 3 days.
(§3) Total ATP was measured (as a surrogate estimate of cell number) using CellTiter-Glo® reagent (Promega G7571). Briefly, plates were removed from the incubator and allowed to equilibrate to room temperature for 30 minutes. CellTiter-Glo® (25 μL or 55 μL for 384-well or 96-well assays, respectively) reagent was added to each well and plates were shaken on an orbital plate shaker for 2 mins. Plates were incubated without shaking for a further 30 mins and read on an LJL Analyst GT reader in luminometer mode with an integration time of 0.5 seconds per well. Percent inhibition of cell growth was calculated relative to DMSO vehicle-treated control wells. Concentration of compound required to give 50% inhibition of vehicle-treated control cell growth (IC50) was interpolated using a 4-parameter fit for determining IC50 using the following equation: Y=A+((B−A)/(1+((C/X)̂D))) where X=IC50.

SK-MEL-28 tumor cells = test: Method C: Cell Growth Inhibition Assay (CellTiter-Glo), SK-MEL-28; format: cell-based; conditions: Homo sapiens, SK-MEL-28, 72 h, 3 days, 4-parameter fit
Method: as §1, §2, §3

BT474 tumor cells = test: Method C: Cell Growth Inhibition Assay (CellTiter-Glo), BT474; format: cell-based; conditions: Homo sapiens, BT-474, 72 h, 3 days, 4-parameter fit
Method: as §1, §2, §3

ErbB2 = target: T1, ErbB2 (Homo sapiens, UniProt P04626); test: ErbB-2 substrate phosphorylation assay (HTRF); format: biochemical; conditions: Method (A): Enzyme Mix incubated with compound at 20° C. for 1 hr, reaction started by adding Substrate Mix
T1 construct: made in house; host or cells: baculovirus expression system
T1 sequence (P04626 23-1255): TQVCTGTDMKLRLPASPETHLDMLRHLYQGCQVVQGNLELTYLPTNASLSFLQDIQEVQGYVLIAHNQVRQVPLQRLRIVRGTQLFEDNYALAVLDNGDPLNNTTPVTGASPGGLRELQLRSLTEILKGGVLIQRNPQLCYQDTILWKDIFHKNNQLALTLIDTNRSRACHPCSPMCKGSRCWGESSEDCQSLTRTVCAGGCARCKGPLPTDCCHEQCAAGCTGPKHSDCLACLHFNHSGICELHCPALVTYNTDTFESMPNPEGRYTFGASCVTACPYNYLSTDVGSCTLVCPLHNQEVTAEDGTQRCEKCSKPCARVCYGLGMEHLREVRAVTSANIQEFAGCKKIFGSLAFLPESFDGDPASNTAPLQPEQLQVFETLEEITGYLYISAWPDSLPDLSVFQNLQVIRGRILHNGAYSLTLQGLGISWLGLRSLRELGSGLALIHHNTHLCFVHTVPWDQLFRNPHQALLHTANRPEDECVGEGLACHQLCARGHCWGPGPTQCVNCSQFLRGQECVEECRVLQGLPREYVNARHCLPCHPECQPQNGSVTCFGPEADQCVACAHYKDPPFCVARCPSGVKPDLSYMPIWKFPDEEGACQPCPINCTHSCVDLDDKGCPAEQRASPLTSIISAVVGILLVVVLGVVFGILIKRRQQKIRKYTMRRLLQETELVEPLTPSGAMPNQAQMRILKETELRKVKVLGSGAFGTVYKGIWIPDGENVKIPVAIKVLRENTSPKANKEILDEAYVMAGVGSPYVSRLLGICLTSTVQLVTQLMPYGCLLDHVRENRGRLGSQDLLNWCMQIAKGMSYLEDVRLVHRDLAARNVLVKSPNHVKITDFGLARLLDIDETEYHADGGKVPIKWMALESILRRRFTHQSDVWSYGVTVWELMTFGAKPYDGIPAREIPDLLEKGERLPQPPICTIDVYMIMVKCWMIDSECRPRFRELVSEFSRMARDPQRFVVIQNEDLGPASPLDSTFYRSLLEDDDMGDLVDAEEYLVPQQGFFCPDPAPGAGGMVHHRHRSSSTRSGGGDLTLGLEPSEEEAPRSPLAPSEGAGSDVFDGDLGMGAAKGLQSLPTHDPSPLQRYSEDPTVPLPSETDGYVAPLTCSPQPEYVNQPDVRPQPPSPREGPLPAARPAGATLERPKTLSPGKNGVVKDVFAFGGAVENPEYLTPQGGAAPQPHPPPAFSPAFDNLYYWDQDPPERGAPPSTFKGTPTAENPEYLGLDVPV
Method: (§4) Compounds of the present invention were tested for EGFR and ErbB-2 protein tyrosine kinase inhibitory activity in substrate phosphorylation assays using enzymes purified from a baculovirus expression system. Reagent production was conducted essentially as described in Brignola, P. S., et al., (2002) J. Biol. Chem. 277(2):1576-1585.
(§5) The method measures the ability of the isolated enzyme to catalyse the transfer of the gamma-phosphate from ATP onto the tyrosine residue of a biotinylated synthetic peptide referenced “Peptide C” in Brignola, P. S., et al., (2002) J. Biol. Chem. 277(2):1576-1585. The extent of tyrosine phosphorylation was measured using an anti-phosphotyrosine antibody, and quantified by homogenous time-resolved fluorescence (HTRF).
(§6) Reactions were performed in black 384-well polystyrene flat-bottom plates in a final volume of 20 μl. Assays were performed by adding 10 μl of each of the following solutions, Substrate Mix and Enzyme Mix: The Substrate Mix contained 100 mM 3-[N-morpholino]propanesulfonic acid (MOPS) (pH 7.5), 2 mM MnCl2, 20 μM ATP, 0.01% Tween-20, 0.1 mg/mL (BSA), 0.8 uM peptide substrate, and 1 mM dithiothreitol. The Enzyme Mix contained 100 mM MOPS (pH 7.5); 0.01% Tween-20; 0.1 mg/mL BSA, and either 0.8 nM EGFR, 10 nM ErbB2, or 1 nM ErbB4
(§7) During the course of these studies, two separate methods have been used to measure the potency of compounds. In Method A (indicated as “(A)” in the tables below), the Enzyme Mix was added to the compound plates and the plates were incubated at 20° C. for 1 hr. The reactions were then started by adding the Substrate Mix. In Method B (indicated as “(B)” in the tables below), the Substrate Mix was added to the compound plates first, then the reaction was started by adding the Enzyme Mix.
(§8) After initiating the reaction with either method describe above, the reactions were allowed to proceed for 90 minutes at 20° C. The reactions were then terminated by the addition of 20 μL 100 mM EDTA to each well. 40 μL/well of HTRF detection mix were added to the assay plates. The final concentrations of the detection reagents were: 100 mM HEPES (pH7.5), 0.1 mg/mL BSA, 15 nM streptavidin-labeled allophycocyanin (PerkinElmer), and 1 nM europium-labeled anti-phosphotyrosine antibody (PerkinElmer). Assay plates were left unsealed and were counted in a Wallac Multilabel Counter 1420 (PerkinElmer).
(§9) Compounds under analysis were dissolved in dimethylsulfoxide (DMSO) to 1.0 mM and serially diluted 1 to 3 with DMSO through twelve dilutions. 1 μL of each concentration was transferred to the corresponding well of an assay plate. This creates a final compound concentration range from 0.00027 to 47.6 μM.
(§10) The data for dose responses were plotted as % Inhibition calculated with the data reduction formula 100*(1−(U1−C2)/(C1−C2)) versus concentration of compound where U1 is the unknown value, C1 is the average control value obtained for 4.76% DMSO, and C2 is the average control value obtained for 0.035 M EDTA. Data were fitted with a curve described by:
(§11) where Vmax is the upper asymptote, Y2 is the Y intercept, and K is the IC50. The results for each compound were recorded as pIC50s, calculated as follows: […]

EGFR = target: T2, EGFR (Homo sapiens, UniProt P00533); test: EGFR substrate phosphorylation assay (HTRF); format: biochemical; conditions: Method (A): Enzyme Mix incubated with compound at 20° C. for 1 hr, reaction started by adding Substrate Mix
T2 construct: made in house; host or cells: baculovirus expression system
T2 sequence (P00533 25-1210): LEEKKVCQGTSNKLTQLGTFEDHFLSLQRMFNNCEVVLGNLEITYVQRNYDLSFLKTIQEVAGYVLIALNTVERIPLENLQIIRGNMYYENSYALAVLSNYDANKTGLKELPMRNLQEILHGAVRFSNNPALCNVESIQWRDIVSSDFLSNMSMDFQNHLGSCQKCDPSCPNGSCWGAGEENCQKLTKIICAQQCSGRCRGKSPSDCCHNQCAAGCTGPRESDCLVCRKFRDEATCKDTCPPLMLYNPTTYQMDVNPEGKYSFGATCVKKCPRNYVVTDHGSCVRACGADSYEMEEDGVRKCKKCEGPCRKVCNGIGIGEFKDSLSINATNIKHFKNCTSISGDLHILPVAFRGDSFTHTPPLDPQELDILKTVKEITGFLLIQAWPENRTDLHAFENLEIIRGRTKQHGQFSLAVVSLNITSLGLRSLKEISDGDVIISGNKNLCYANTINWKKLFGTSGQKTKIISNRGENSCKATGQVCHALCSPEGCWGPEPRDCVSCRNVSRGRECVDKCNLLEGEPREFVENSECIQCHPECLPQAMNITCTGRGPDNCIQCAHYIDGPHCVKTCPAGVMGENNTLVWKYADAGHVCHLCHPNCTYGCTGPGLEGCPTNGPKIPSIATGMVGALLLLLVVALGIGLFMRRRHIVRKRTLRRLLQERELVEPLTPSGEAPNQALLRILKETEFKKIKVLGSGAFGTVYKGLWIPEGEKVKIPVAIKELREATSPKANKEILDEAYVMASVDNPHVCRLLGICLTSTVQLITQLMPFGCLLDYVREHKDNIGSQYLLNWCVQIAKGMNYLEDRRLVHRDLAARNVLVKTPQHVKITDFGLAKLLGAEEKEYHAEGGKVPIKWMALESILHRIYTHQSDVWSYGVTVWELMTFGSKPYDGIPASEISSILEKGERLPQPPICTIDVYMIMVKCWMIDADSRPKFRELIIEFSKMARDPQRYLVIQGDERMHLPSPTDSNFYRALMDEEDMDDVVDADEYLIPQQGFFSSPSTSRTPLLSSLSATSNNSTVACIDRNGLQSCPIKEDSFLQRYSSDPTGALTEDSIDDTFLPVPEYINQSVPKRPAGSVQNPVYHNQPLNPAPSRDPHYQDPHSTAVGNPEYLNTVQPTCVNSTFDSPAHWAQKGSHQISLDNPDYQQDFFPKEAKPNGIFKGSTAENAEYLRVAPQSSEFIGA
Method: as §4, §5, §6, §7, §8, §9, §10, §11

## CCc1nc(-c2cccc(NC(=O)c3c(F)cccc3F)c2)c(-c2ccnc(Nc3ccc(OCCN4CCCC4)c(F)c3)n2)s1 [Example 117, N-[3-(2-Ethyl-5-{2-[(3-fluoro-4-{[2-(1-pyrrolidinyl)ethyl]oxy}phenyl)amino]-4-pyrimidinyl}-1,3-thiazol-4-yl)phenyl]-2,6-difluorobenzamide]
Colo205 tumor cells
  pIC50: < 6.00
SK-MEL-28 tumor cells
  pIC50: < 6.00
BT474 tumor cells
  pIC50: 6.00 to 7.00
ErbB2
  pIC50: > 7.00
EGFR
  pIC50: > 7.00

## CN1CCN(c2nc(-c3cccc(NC(=O)c4c(F)cccc4F)c3)c(-c3ccnc(Nc4cccc(CN5CCCC5)c4)n3)s2)CC1 [Example 46, 2,6-Difluoro-N-{3-[2-(4-methyl-1-piperazinyl)-5-(2-{[3-(1-pyrrolidinylmethyl)phenyl]amino}-4-pyrimidinyl)-1,3-thiazol-4-yl]phenyl}benzamide]
Colo205 tumor cells
  pIC50: 6.00 to 7.00
SK-MEL-28 tumor cells
  pIC50: < 6.00
BT474 tumor cells
  pIC50: 6.00 to 7.00
ErbB2
  pIC50: > 7.00
EGFR
  pIC50: > 7.00

## CN1CCC(c2nc(-c3cccc(NC(=O)c4c(F)cccc4F)c3)c(-c3ccnc(Nc4ccc5c(c4)CN(C)CC5)n3)s2)CC1 [Example 125, 2,6-Difluoro-N-[3-(2-(1-methyl-4-piperidinyl)-5-{2-[(2-methyl-1,2,3,4-tetrahydro-7-isoquinolinyl)amino]-4-pyrimidinyl}-1,3-thiazol-4-yl)phenyl]benzamide]
Colo205 tumor cells
  pIC50: 6.00 to 7.00
SK-MEL-28 tumor cells
  pIC50: 6.00 to 7.00
BT474 tumor cells
  pIC50: 6.00 to 7.00
ErbB2
  pIC50: > 7.00
EGFR
  pIC50: > 7.00

## CC(C)(C)c1nc(-c2cccc(NC(=O)c3c(F)cccc3F)c2)c(-c2ccnc(Nc3cccc(CN4CCCC4)c3)n2)s1 [Example 123, N-{3-[2-(1,1-Dimethylethyl)-5-(2-{[3-(1-pyrrolidinylmethyl)phenyl]amino}-4-pyrimidinyl)-1,3-thiazol-4-yl]phenyl}-2,6-difluorobenzamide]
Colo205 tumor cells
  pIC50: < 6.00
SK-MEL-28 tumor cells
  pIC50: < 6.00
BT474 tumor cells
  pIC50: 6.00 to 7.00
ErbB2
  pIC50: > 7.00
EGFR
  pIC50: > 7.00

## O=C(Nc1cccc(-c2nc(N3CCC3)sc2-c2ccnc(Nc3ccc(OCCN4CCCC4)c(Cl)c3)n2)c1)c1c(F)cccc1F [Example 47, N-[3-(2-(1-Azetidinyl)-5-{2-[(3-chloro-4-{[2-(1-pyrrolidinyl)ethyl]oxy}phenyl)amino]-4-pyrimidinyl}-1,3-thiazol-4-yl)phenyl]-2,6-difluorobenzamide]
Colo205 tumor cells
  pIC50: < 6.00
SK-MEL-28 tumor cells
  pIC50: < 6.00
BT474 tumor cells
  pIC50: < 6.00
ErbB2
  pIC50: > 7.00
EGFR
  pIC50: > 7.00

## Cc1nc(-c2cccc(NC(=O)c3c(F)cccc3F)c2)c(-c2ccnc(Nc3ccc(OCCN4CCCC4)c(Cl)c3)n2)s1 [Example 110, N-[3-(5-{2-[(3-Chloro-4-{[2-(1-pyrrolidinyl)ethyl]oxy}phenyl)amino]-4-pyrimidinyl}-2-methyl-1,3-thiazol-4-yl)phenyl]-2,6-difluorobenzamide]
Colo205 tumor cells
  pIC50: < 6.00
SK-MEL-28 tumor cells
  pIC50: < 6.00
BT474 tumor cells
  pIC50: 6.00 to 7.00
ErbB2
  pIC50: > 7.00
EGFR
  pIC50: > 7.00

## CN1CCc2ccc(Nc3nccc(-c4sc(CS(=O)(=O)C(C)(C)C)nc4-c4cccc(NC(=O)c5c(F)cccc5F)c4)n3)cc2C1 [Example 120, N-[3-(2-{[(1,1-Dimethylethyl)sulfonyl]methyl}-5-{2-[(2-methyl-1,2,3,4-tetrahydro-7-isoquinolinyl)amino]-4-pyrimidinyl}-1,3-thiazol-4-yl)phenyl]-2,6-difluorobenzamide]
Colo205 tumor cells
  pIC50: 6.00 to 7.00
SK-MEL-28 tumor cells
  pIC50: < 6.00
BT474 tumor cells
  pIC50: > 7.00
ErbB2
  pIC50: > 7.00
EGFR
  pIC50: > 7.00

## COc1ccccc1C(=O)Nc1cccc(-c2nc(C)sc2-c2ccnc(Nc3ccc4c(c3)CN(C)CC4)n2)c1 [Example 130, N-[3-(2-Methyl-5-{2-[(2-methyl-1,2,3,4-tetrahydro-7-isoquinolinyl)amino]-4-pyrimidinyl}-1,3-thiazol-4-yl)phenyl]-2-(methyloxy)benzamide]
Colo205 tumor cells
  pIC50: < 6.00
SK-MEL-28 tumor cells
  pIC50: < 6.00
BT474 tumor cells
  pIC50: < 6.00
ErbB2
  pIC50: > 7.00
EGFR
  pIC50: > 7.00

## CC(C)(C)S(=O)(=O)Cc1nc(-c2cccc(NC(=O)c3c(F)cccc3F)c2)c(-c2ccnc(Nc3ccc(OCCN4CCCC4)c(Cl)c3)n2)s1 [Example 119]
Colo205 tumor cells
  pIC50: 6.00 to 7.00
SK-MEL-28 tumor cells
  pIC50: < 6.00
BT474 tumor cells
  pIC50: 6.00 to 7.00
ErbB2
  pIC50: > 7.00
EGFR
  pIC50: > 7.00

## O=C(Nc1cccc(-c2nc(N3CCCCC3)sc2-c2ccnc(Nc3cccc(CN4CCCC4)c3)n2)c1)c1c(F)cccc1F [Example 73, 2,6-Difluoro-N-{3-[2-(1-piperidinyl)-5-(2-{[3-(1-pyrrolidinylmethyl)phenyl]amino}-4-pyrimidinyl)-1,3-thiazol-4-yl]phenyl}benzamide]
Colo205 tumor cells
  pIC50: 6.00 to 7.00
SK-MEL-28 tumor cells
  pIC50: < 6.00
BT474 tumor cells
  pIC50: 6.00 to 7.00
ErbB2
  pIC50: > 7.00
EGFR
  pIC50: > 7.00

## Cc1nc(-c2cccc(NC(=O)Nc3ccc(Cl)c(C(F)(F)F)c3)c2)c(-c2ccnc(Nc3ccc4c(c3)CN(C)CC4)n2)s1 [Example 129]
Colo205 tumor cells
  pIC50: 6.00 to 7.00
SK-MEL-28 tumor cells
  pIC50: < 6.00
BT474 tumor cells
  pIC50: < 6.00
ErbB2
  pIC50: > 7.00
EGFR
  pIC50: 6.00 to 7.00
